Results taken from patent US20170247336A1 (MERCK SHARP & DOHME CORP., priority 2014, published 2017).
Structures can show the parent of a compound that is named as a salt.

Target: T1, human HIF-PHD2 (Homo sapiens, UniProt Q9GZT9)
T1 construct: FLAG-tagged full length PHD2 expressed in and purified from baculovirus-infected Sf9 cells; FLAG; made in house; host or cells: baculovirus-infected Sf9 cells
Experiment: HIF-PHD2 inhibition: hydroxylation of HIF-1α peptide, time resolved fluorescence
Assay type: biochemical
Conditions: FLAG-tagged full length PHD2; 0.2 μM 2-oxoglutarate, 0.5 μM HIF-1α peptide
Experimental: To each well of a 384-well plate, 1 μL of test compounds in DMSO (final concentration ranging from 0.3 nM to 10 μM) were added into 20 μl of assay buffer (50 mM Tris pH 7.4/0.01% Tween-20/0.1 mg/ml bovine serum albumin/10 μM ferrous sulfate/1 mM sodium ascorbate/20 μg/ml catalase) containing 0.15 μg/ml FLAG-tagged full length PHD2 expressed in and purified from baculovirus-infected Sf9 cells. After a 5 min preincubation at room temperature, the enzymatic reactions were initiated by the addition of 4 μL of substrates {final concentrations of 0.2 μM 2-oxoglutarate and 0.5 μM HIF-1α peptide biotinyl-DLDLEMLAPYIPMDDDFQL (SEQ ID NO: 1)}. After incubation for 45 minutes at room temperature, the reactions were terminated by the addition of a 25 μL quench/detection mix to a final concentration of 1 mM ortho-phenanthroline, 0.1 mM EDTA, 0.5 nM anti-(His)6 LANCE reagent (Perkin-Elmer Life Sciences), 100 nM AF647-labeled streptavidin (Invitrogen), and 2 μg/ml (His)6-VHL complex {S. Tan Protein Expr. Purif. 21, 224-234 (2001)} and the signals were developed for 30 minutes at room temperature. The ratio of time resolved fluorescence signals at 665 and 620 nm was determined, and percent inhibition was calculated relative to the high control samples (DMSO treated) run in parallel, after background subtraction.

T1 sequence (Q9GZT9 whole entry): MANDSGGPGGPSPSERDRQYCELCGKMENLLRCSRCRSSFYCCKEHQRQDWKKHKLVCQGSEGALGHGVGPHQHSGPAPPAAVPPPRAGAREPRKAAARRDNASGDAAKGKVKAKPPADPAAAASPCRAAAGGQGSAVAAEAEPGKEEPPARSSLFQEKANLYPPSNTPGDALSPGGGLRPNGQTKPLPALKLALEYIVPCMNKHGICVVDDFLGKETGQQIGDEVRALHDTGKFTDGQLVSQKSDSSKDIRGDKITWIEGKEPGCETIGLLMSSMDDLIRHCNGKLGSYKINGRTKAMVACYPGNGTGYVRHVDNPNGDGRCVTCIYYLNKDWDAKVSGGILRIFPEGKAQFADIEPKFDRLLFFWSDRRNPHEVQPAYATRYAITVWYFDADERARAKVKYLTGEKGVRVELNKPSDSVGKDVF

Compound | IC50 [nM]
N#Cc1ccc(C(NC(=O)c2cnc(C(=O)NC[C@@H](O)C(=O)O)nc2O)c2ccccc2)cc1 (single isomer, unassigned) [Example 8] | 6.8
N#Cc1ccc(C(NC(=O)c2cnc(C(=O)NC[C@@H](O)C(=O)O)nc2O)c2ccccc2)cc1 (single isomer, unassigned) [Example 9] | 27.2
COc1ccc(C(NC(=O)c2cnc(C(=O)NCC(C)C(=O)O)nc2O)c2ccc(OC)cc2)cc1 (single isomer, unassigned) [Example 18, (R) or (S)-3-(5-((bis(4-methoxyphenyl)methyl)carbamoyl)-4-hydroxypyrimidine-2-carboxamido)-2-methylpropanoic acid] | 15
COc1ccc(-c2ccc(C(C)(C)NC(=O)c3cnc(C(=O)NCC(C)C(=O)O)nc3O)cn2)cc1 (single isomer, unassigned) [Example 19, (R) or (S)-3-(4-hydroxy-5-((2-(6-(4-methoxyphenyl)pyridin-3-yl)propan-2-yl)carbamoyl)pyrimidine-2-carboxamido)-2-methylpropanoic acid] | 2.8
CC(CNC(=O)c1ncc(C(=O)NC(C)(C)c2ccc(-c3ccc(C(F)(F)F)cc3)cc2)c(O)n1)C(=O)O (single isomer, unassigned) [Example 20, (R) or (S)-3-(4-hydroxy-5-((2-(4′-(trifluoromethyl)-[1,1′-biphenyl]-4-yl)propan-2-yl)carbamoyl)pyrimidine-2-carboxamido)-2-methylpropanoic acid] | 8.1
CC(CNC(=O)c1ncc(C(=O)NC(C)(C)c2ccc(-c3cccc4cnccc34)cc2)c(O)n1)C(=O)O (single isomer, unassigned) [Example 21, (R) or (S)-2-((2-carboxypropyl)carbamoyl)-6-hydroxy-5-((2-(4-(isoquinolin-5-yl)phenyl)propan-2-yl)carbamoyl)pyrimidin-1-ium formate] | 4.8
CC(CNC(=O)c1ncc(C(=O)NC(C)(C)c2ccc(-c3cccnc3)cc2)c(O)n1)C(=O)O (single isomer, unassigned) [Example 22, (R) or (S)-2-((2-carboxypropyl)carbamoyl)-6-hydroxy-5-((2-(4-(pyridin-3-yl)phenyl)propan-2-yl)carbamoyl)pyrimidin-1-ium formate] | 3
Cc1cc(C#N)ccc1-c1ccc(C(C)(C)NC(=O)c2cnc(C(=O)NCC(C)C(=O)O)nc2O)cc1 (single isomer, unassigned) [Example 23, (R) or (S)-3-(5-((2-(4′-cyano-2′-methyl-[1,1′-biphenyl]-4-yl)propan-2-yl)carbamoyl)-4-hydroxypyrimidine-2-carboxamido)-2-methylpropanoic acid] | 12
CC(CNC(=O)c1ncc(C(=O)NC(C)(C)c2ccc(-c3ccc(F)cc3)cc2)c(O)n1)C(=O)O (single isomer, unassigned) [Example 24, (R) or (S)-3-(5-((2-(4′-fluoro-[1,1′-biphenyl]-4-yl)propan-2-yl)carbamoyl)-4-hydroxypyrimidine-2-carboxamido)-2-methylpropanoic acid] | 4.8
CC(CNC(=O)c1ncc(C(=O)NC(C)(C)c2ccc(-c3ccc(OC(F)(F)F)cc3)cc2)c(O)n1)C(=O)O (single isomer, unassigned) [Example 25, (R) or (S)-3-(4-hydroxy-5-((2-(4′-(trifluoromethoxy)-[1,1′-biphenyl]-4-yl)propan-2-yl)carbamoyl)pyrimidine-2-carboxamido)-2-methylpropanoic acid] | 13
COc1ccc(-c2ccc(C(C)(C)NC(=O)c3cnc(C(=O)NCC(C)C(=O)O)nc3O)cc2)cn1 (single isomer, unassigned) [Example 26, (R) or (S)-2-((2-carboxypropyl)carbamoyl)-6-hydroxy-5-((2-(4-(6-methoxypyridin-3-yl)phenyl)propan-2-yl)carbamoyl)pyrimidin-1-ium chloride] | 3.4
CC(CNC(=O)c1ncc(C(=O)NC(C)(C)c2ccc(-c3cc[nH]n3)cc2)c(O)n1)C(=O)O (single isomer, unassigned) [Example 27, (R) or (S)-5-((2-(4-(1H-pyrazol-3-yl)phenyl)propan-2-yl)carbamoyl)-2-((2-carboxypropyl)carbamoyl)-6-hydroxypyrimidin-1-ium formate] | 5.8
CC(CNC(=O)c1ncc(C(=O)NC(C)(C)c2ccc(-c3ccc(Cl)cc3)cc2)c(O)n1)C(=O)O (single isomer, unassigned) [Example 28, (R) or (S)-3-(5-((2-(4′-chloro-[1,1′-biphenyl]-4-yl)propan-2-yl)carbamoyl)-4-hydroxypyrimidine-2-carboxamido)-2-methylpropanoic acid] | 5.9
CC(CNC(=O)c1ncc(C(=O)NC2(c3ccc(-c4ccc(Cl)cc4)cc3)CC2)c(O)n1)C(=O)O (single isomer, unassigned) [Example 30, (R) or (S)-3-(5-((1-(4′-chloro-[1,1′-biphenyl]-4-yl)cyclopropyl)carbamoyl)-4-hydroxypyrimidine-2-carboxamido)-2-methylpropanoic acid] | 13
CC(CNC(=O)c1ncc(C(=O)NC2(c3ccc(-c4cccc5cnccc45)cc3)CC2)c(O)n1)C(=O)O (single isomer, unassigned) [Example 31, (R) or (S)-2-((2-carboxypropyl)carbamoyl)-6-hydroxy-5-((1-(4-(isoquinolin-5-yl)phenyl)cyclopropyl)carbamoyl)pyrimidin-1-ium formate] | 10
CC(CNC(=O)c1ncc(C(=O)NC2(c3ccc(-c4ccc(F)cc4)cc3)CC2)c(O)n1)C(=O)O (single isomer, unassigned) [Example 32, (R) or (S)-3-(5-((1-(4′-fluoro-[1,1′-biphenyl]-4-yl)cyclopropyl)carbamoyl)-4-hydroxypyrimidine-2-carboxamido)-2-methylpropanoic acid] | 12
COc1ccc(-c2ccc(C3(NC(=O)c4cnc(C(=O)NCC(C)C(=O)O)nc4O)CC3)cc2)cn1 (single isomer, unassigned) [Example 33, (R) or (S)-2-((2-carboxypropyl)carbamoyl)-6-hydroxy-5-((1-(4-(6-methoxypyridin-3-yl)phenyl)cyclopropyl)carbamoyl)pyrimidin-1-ium chloride] | 4.3
CNc1ccc(C(NC(=O)c2cnc(C(=O)NCCC(=O)O)nc2O)c2ccc(OC)cc2)cn1 (single isomer, unassigned) [Example 34, (R) or (S)-3-(4-hydroxy-5-(((4-methoxyphenyl)(6-(methylamino)pyridin-3-yl)methyl)carbamoyl)pyrimidine-2-carboxamido)propanoic acid] | 0.58
CC(O)(CNC(=O)c1ncc(C(=O)NC(c2ccccc2)c2ccccc2)c(O)n1)C(=O)O (stereo not drawn) [Example 3, 3-(5-(Benzhydrylcarbamoyl)-4-hydroxypyrimidine-2-carboxamido)-2-hydroxy-2-methylpropanoic acid] | 4.1
O=C(NCC(O)C(=O)O)c1ncc(C(=O)NC(c2ccccc2)c2ccccc2)c(O)n1 (stereo not drawn) [Example 5, 3-(5-(benzhydrylcarbamoyl)-4-hydroxypyrimidine-2-carboxamido)-2-hydroxypropanoic acid] | 0.9
COc1ccc([C@@H](NC(=O)c2cnc(C(=O)NC[C@@H](O)C(=O)O)nc2O)c2ccccc2)cc1 [Example 10, (R)-2-Hydroxy-3-(4-hydroxy-5-(((S)-(4-methoxyphenyl) (phenyl)methyl)carbamoyl)pyrimidine-2-carboxamido)propanoic acid] | 6.8
CC(C)(NC(=O)c1cnc(C(=O)NC[C@@H](O)C(=O)O)nc1O)c1ccc(C(F)(F)F)cc1 [Example 11, (R)-2-hydroxy-3-(4-hydroxy-5-((2-(4-(trifluoromethyl)phenyl)propan-2-yl)carbamoyl)pyrimidine-2-carboxamido)propanoic acid] | 1.5
COc1ccc([C@H](NC(=O)c2cnc(C(=O)NC[C@@H](O)C(=O)O)nc2O)c2ccccc2)cc1 [Example 12, (R)-2-hydroxy-3-(4-hydroxy-5-(((R)-(4-methoxyphenyl)(phenyl)methyl)carbamoyl)pyrimidine-2-carboxamido)propanoic acid] | 8.7
CC(CNC(=O)c1ncc(C(=O)NC(c2ccc(Cl)cc2)c2ccc(Cl)cc2)c(O)n1)C(=O)O (stereo not drawn) [Example 13] | 4.88
COc1ccc([C@@H](NC(=O)c2cnc(C(=O)NCCC(=O)O)nc2O)c2ccc(Cl)cc2)cc1 [Example 35, (R)-3-(5-(((4-chlorophenyl)(4-methoxyphenyl)methyl)carbamoyl)-4-hydroxypyrimidine-2-carboxamido)propanoic acid] | 0.9
COc1ccc(C(NC(=O)c2cnc(C(=O)NCCC(=O)O)nc2O)c2ccccc2)cc1 (stereo not drawn) [Example 38] | 0.9
O=C(O)CCNC(=O)c1ncc(C(=O)NC(c2ccc(Cl)cc2)c2ccc(C(F)(F)F)cc2)c(O)n1 (stereo not drawn) [Example 40, 3-(5-(((4-chlorophenyl)(4-(trifluoromethyl)phenyl)methyl)carbamoyl)-4-hydroxypyrimidine-2-carboxamido)propanoic acid] | 0.9
